Experimental data taken from patent US8815903B2, “Indole derivative and pharmacologically acceptable salt thereof” (Kissei Pharmaceutical Co., Ltd., priority 2011, dated 2014).

How the values were obtained:
rat EP1 receptor = molecular target: T1, rat EP1 receptor (Rattus norvegicus, UniProt P70597); test: Test for confirmation of EP1 receptor antagonism (inhibition of PGE2-induced increase in intracellular calcium concentration); assay type: cell-based; details: rat EP1 receptor-expressing COS-1 cells; prostaglandin E2 10 nM; fluorescent calcium indicator, FDSS 7000
T1 construct: expressed in transfected cells
T1 sequence (P70597 1-405): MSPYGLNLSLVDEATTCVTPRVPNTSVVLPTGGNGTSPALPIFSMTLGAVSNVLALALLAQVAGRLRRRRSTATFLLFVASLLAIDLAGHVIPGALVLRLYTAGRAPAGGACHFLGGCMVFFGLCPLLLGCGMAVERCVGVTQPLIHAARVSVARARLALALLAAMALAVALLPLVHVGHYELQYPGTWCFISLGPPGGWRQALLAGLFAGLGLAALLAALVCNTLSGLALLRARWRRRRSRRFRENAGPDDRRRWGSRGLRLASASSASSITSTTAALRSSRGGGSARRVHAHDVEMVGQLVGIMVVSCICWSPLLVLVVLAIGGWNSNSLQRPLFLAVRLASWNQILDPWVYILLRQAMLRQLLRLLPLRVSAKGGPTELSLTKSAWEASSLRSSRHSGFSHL
Protocol: Test for Confirmation of EP1 Receptor Antagonism
(1) Preparation of Rat EP1 Expression Vector
Using Rat Kidney BD Marathon-Ready cDNA (Nippon Becton Dickinson Company, Ltd.) as a template, a forward primer shown in (SEQ ID NO:1), and a reverse primer shown in (SEQ ID NO:2), a first run of PCR was carried out using KOD-Plus-Ver 2.0 (Toyobo Co., Ltd.). Further, using this amplification product as a template, a forward primer shown in (SEQ ID NO:3), and a reverse primer shown in (SEQ ID NO:4), a second run of PCR was carried out in the same manner. The amplification product obtained by the second run of PCR was incorporated into a vector (pcDNA3.1 D/V5-His-TOPO (registered trademark), Invitrogen Japan K. K.). By a conventional method, the vector containing this amplification product was introduced to E. coli (One Shot TOP 10 Competent Cells, Invitrogen Corporation) to transform. This transformed E. coli was cultured in an LB agar medium for one day. After the culture, colonies were selected and cultured in an LB liquid medium containing 50 μg/mL of ampicillin. After the culture, the vector was purified using a QIAprep Spin Miniprep Kit (Qiagen K. K.). The base sequence of the insertion site of this vector (SEQ ID NO:5) was compared with the rat EP1 base sequence (Ptger1) registered as Accession No. NM_013100 in publicly-known database (NCBI), and as a result, they all matched except for a single base. Further, the amino acid sequence translated by the base sequence completely matched the amino acid sequence of the rat EP1 receptor registered as an NCBI Accession No. NP_037232. Therefore, it was confirmed that the cloned gene sequence was a base sequence of the rat EP1 receptor and the obtained amino acid sequence was that of the rat EP1 receptor. The pcDNA3.1 D/V5-His-TOPO (registered trademark) to which the nucleic acid shown in (SEQ ID NO:5) had been inserted was taken as a rat EP1-expressing vector.
(2) Preparation of Rat EP1 Receptor-Expressing Cells
COS-1 cells (Dainippon Sumitomo Pharma Co., Ltd.) were cultured until they reached confluence in an incubator at 37° C. under a 5% CO2 gas condition, using a D-MEM liquid medium (high glucose and L-glutamine contained, Invitrogen Corporation) to which a penicillin-streptomycin solution (Invitrogen Corporation, final concentration: 100 U/mL as benzylpenicillin; 100 μg/mL as streptomycin) as an antibiotic, MEM nonessential amino acids (Invitrogen Corporation, final concentration: 0.1 mM), and fetal calf serum (Sanko Junyaku Co., Ltd., final concentration: 10%) were added.
The cells that had reached confluence were stripped with 0.05% trypsin/0.53 mM EDTA.4Na, and resuspended in a D-MEM liquid medium (high glucose and L-glutamine contained, Invitrogen Corporation) to which an MEM nonessential amino acid (final concentration: 0.1 mM) and fetal calf serum (final concentration: 10%) were added. In each well of a Poly D-lysine-coated 96-well microplate (BD BioCoat (registered trademark), Nippon Becton Dickinson Company, Ltd.), this resuspended cell suspension culture was prepared to be 5×10^4 cells/well in 100 μL of the liquid medium, and 100 μL of the cell suspension was seeded on each well. After seeding, the cells were cultured in an incubator at 37° C. under a 5% CO2 gas condition. At a point when the cells for introduction of a rat EP1-expressing vector were adhered (about 2 hours after seeding), introduction of the rat EP1-expressing vector was carried out in the following order.
For introduction of the rat EP1-expressing vector, Lipofectamine 2000 (Invitrogen Japan K. K.) was used. The rat EP1-expressing vector was diluted with OPTI-MEM (registered trademark) I Reduced-Serum Medium (Invitrogen Japan K. K.) to 200 ng/25 μL/well, and at the same time, Lipofectamine 2000 (Invitrogen Japan K. K.) was also diluted with OPTI-MEM (registered trademark) I Reduced-Serum Medium (Invitrogen Japan K. K.) to 0.5 μL/25 μL/well, followed by incubation at room temperature for 5 minutes. […]

[1] = system: Sulprostone-Induced Bladder Contraction; test: Inhibitory effect of compound on sulprostone-induced bladder contraction; assay type: in vivo, rat; details: female SD rats, urethane anesthesia, sulprostone 0.3 mg/kg s.c., test agent 1.0 mg/kg intravenously; for Bladder Contraction Inhibition Rate 15 minutes: 15 minutes from administration; for Bladder Contraction Inhibition Rate 60 minutes: 60 minutes from administration
Text: Inhibitory Effect of Compound on Sulprostone-Induced Bladder Contraction
Female SD rats were used. Under urethane anesthesia (1.25 g/kg, administered subcutaneously), a tracheal cannula (Size 8, HIBIKI) and a femoral vein cannula for administration (23 G needle-equipped PESO) were inserted thereinto. The bladder cannula (PESO) was inserted from the bladder apex. The bladder cannula was connected to a three-way stopcock, and then, one was connected to a pressure transducer and the other was connected to a syringe filled with saline. Saline was injected to the bladder at an injection rate of 3.6 mL/hour and the bladder contraction pressure was recorded at the time of injection with a recorder (RECTI-HORITZ-8K, NEC Corporation). After 10 minutes from stabilization of the bladder contraction pressure during urination, sulprostone was administered subcutaneously (0.3 mg/kg). Then, at the time point when the bladder contraction pressure became constant, a test agent was administered intravenously (1.0 mg/kg). An average bladder contraction pressure during the 10 minute period before administration of sulprostone was taken as a baseline (0%). Further, an average bladder contraction pressure during the 10 minute period directly before administration of the test agent was taken as a maximum bladder contraction pressure (100%). The average bladder contraction pressures were measured during 5 minutes before and after at 15 minutes and 60 minutes from administration of the test agent. The ratio of this measured value to the maximum bladder contraction pressure was calculated by the following equation and taken as an average bladder contraction rate after administration of the test agent: (Average Bladder Contraction Rate after Administration of Test Agent (%))=[(Average Bladder Contraction Pressure after Administration of Test Agent)/(Maximum Bladder Contraction Pressure)]×100 EQUATION 1
In addition, the difference between the maximum bladder contraction rate (100%) and the average bladder contraction rate (%) after administration of the test agent was calculated by the following equation and taken as a bladder contraction inhibition rate of the test agent: (Bladder Contraction Inhibition Rate)=100%−(Average Bladder Contraction Rate after Administration of Test Agent (%)) EQUATION 2

| SMILES | IC50 (rat EP1 receptor) | Bladder Contraction Inhibition Rate 15 minutes [1] | Bladder Contraction Inhibition Rate 60 minutes [1] |
| --- | --- | --- | --- |
| COc1ccc2c(Cc3cccc(C(=O)NS(C)(=O)=O)n3)c(-c3ccccc3)[nH]c2c1 [Example 2-1, N-Methanesulfonyl-6-(6-methoxy-2-phenyl-1H-indol-3-ylmethyl)pyridine-2-carboxamide] | 27 nM | 68.3% | 84.0% |
| COc1ccc2c(Cc3cccc(-c4nnn[nH]4)n3)c(C3(C)CC3)[nH]c2c1 [Example 17-11, 6-methoxy-2-(1-methylcyclopropyl)-3-[6-(1H-tetrazol-5-yl)pyridin-2-ylmethyl]-1H-indole] | 11 nM | 92.8% | 100.9% |
| COc1ccc2c(Cc3cccc(-c4nnn[nH]4)n3)c(-c3ccoc3)[nH]c2c1 [Example 5-11, 2-furan-3-yl-6-methoxy-3-[6-(1H-tetrazol-5-yl)pyridin-2-ylmethyl]-1H-indole] | 5.7 nM | 99.0% | 99.8% |
| COc1ccc2c(Cc3cccc(C(=O)NC#N)n3)c(-c3ccccc3)[nH]c2c1 [Example 10, N-Cyano-6-(6-methoxy-2-phenyl-1H-indol-3-ylmethyl)pyridine-2-carboxamide] | 26 nM | 82.9% | 90.7% |
| COc1ccc2c(Cc3cccc(-c4noc(=O)[nH]4)n3)c(-c3ccccc3)[nH]c2c1 [Example 7-1, 3-[6-(6-Methoxy-2-phenyl-1H-indol-3-ylmethyl)pyridin-2-yl]-4,5-dihydro-1,2,4-oxadiazol-5-one] | 26 nM | 66.3% | 83.0% |
| COc1cc2[nH]c(C3(C)CC3)c(Cc3cccc(-c4nnn[nH]4)n3)c2cc1Cl [Example 20-3, 5-chloro-6-methoxy-2-(1-methylcyclopropyl)-3-[6-(1H-tetrazol-5-yl)pyridin-2-ylmethyl]-1H-indole] | 27 nM | 71.7% | 50.0% |

Second part, led by results:

| IC50 (rat EP1 receptor) | SMILES | Bladder Contraction Inhibition Rate 15 minutes [1] | Bladder Contraction Inhibition Rate 60 minutes [1] |
| --- | --- | --- | --- |
| 39 nM | COc1ccc2c(Cc3cccc(-c4noc(=O)[nH]4)n3)c(C3(C)CC3)[nH]c2c1 [Example 12-14] | 80.5% | 59.1% |
| 61 nM | c1ccc(-c2[nH]c3cc(C4CC4)ccc3c2Cc2cccc(-c3nnn[nH]3)n2)cc1 [Example 5-1, 6-Cyclopropyl-2-phenyl-3-[6-(1H-tetrazol-5-yl)pyridin-2-ylmethyl]-1H-indole] | 82.8% | 91.6% |
| 20 nM | COc1ccc2c(Cc3cccc(-c4nnn[nH]4)n3)c(C(C)(C)C)[nH]c2c1 [Example 5-7, 2-tert-butyl-6-methoxy-3-[6-(1H-tetrazol-5-yl)pyridin-2-ylmethyl]-1H-indole] | 74.8% | 71.0% |
| 4.7 nM | COc1ccc2c(Cc3cccc(-c4nnn[nH]4)n3)c(-c3ccccc3)[nH]c2c1 [Example 5-2, 6-methoxy-2-phenyl-3-[6-(1H-tetrazol-5-yl)pyridin-2-ylmethyl]-1H-indole] | 88.2% | 76.2% |
| 18 nM | CCS(=O)(=O)NC(=O)c1cccc(Cc2c(-c3ccccc3)[nH]c3cc(OC)ccc23)n1 [Example 3-6] | 67.5% | 63.6% |
